Source: patent publication US20060057230A1, “Tea polyphenols bioavailability enhancement method” (priority 2004, published 2006)
Values joined by “and” are separate entries in the source; they are usually repeats but may differ in a detail not shown here. Identical values can stand only once. Like-named read-outs stand apart in the source and are kept apart here.

What was measured:
[1] = Plasma total (free and conjugated) catechin Cmax after β-glucuronidase and sulfatase treatment; conditions: for form mostly present in plasma: comparing total and free catechin Cmax
Procedure: (§1) During the initial clinic visit, study participants completed a medical history form and underwent a brief physical examination. A fasting blood was collected and subjected to a complete blood count with differential leukocyte count and a comprehensive blood chemistry analysis. Eligible subjects were randomly assigned to one of the Polyphenon E doses (400, 800, and 1200 mg, based on EGCG content) and were required to refrain from the ingestion of tea, apples, chocolate, and their products two weeks prior to the first pharmacokinetic study day and until the end of the second pharmacokinetic study day. The night prior to the first pharmacokinetic study day, subjects fasted after midnight except for water. At approximately either 6 am or 9 am on the morning of the first pharmacokinetic study day, each subject was randomly assigned to receive Polyphenon E at the assigned dose level with or without breakfast. Breakfast consisted of one or two 4-oz muffins.
(§2) Study participants had the option of selecting from three varieties of Otis Spunkmeyer® brand muffins: cheese streusel, wild blueberry, and banana nut flavors. The muffins contain 420 to 480 calories each, with 48-60 grams of carbohydrates, 20-24 grams of fat, and 6 grams of protein. Blood samples were collected prior to and at 0.5, 1, 2, 4, 6, 8, 10, and 24 hours after Polyphenon E administration. Urine samples were collected prior to and up to 24 hours (divided into two intervals: 0-8 and 8-24 hours post-dose) after dosing. Following a one-week wash-out period, study subjects fasted overnight and were crossed-over to receive the same dose of Polyphenon E under the other fasting/fed condition.
(§3) Blood samples were collected into Vacutainer tubes containing sodium heparin. Within 30 minutes of collection, tubes were centrifuged for 10 minutes at 2000 rpm. After centrifugation, plasma was mixed with Vc-EDTA solution (0.4 M NaH2PO4 buffer containing 20% ascorbic acid and 0.1% EDTA, pH 3.6) in the volume ratio of 1:0.02 and stored at −80° C. until sample analysis. Urine specimen container was preadded with 1.38 g NaH2PO4, 1 g ascorbic acid, and 5 mg EDTA to prevent degradation of tea catechins. Urine specimen was kept cold by storing the specimen container in a cooler chest with freezer packs during each collection period. The total volume of each urine sample was measured. An aliquot of urine sample was mixed with the Vc-EDTA solution and stored at −80° C. until sample analysis.
(§4) In brief, for determination of free green tea catechins, plasma or urine samples were extracted with ethyl acetate. The ethyl acetate layer was mixed with a small aliquot of 0.1% ascorbic acid before drying by vacuum centrifugation. The dried residue was re-dissolved in 15% acetonitrile and injected onto HPLC. For determination of the total of free and glucuronic acid/sulfate conjugates of tea catechins, plasma or urine samples were mixed with an aliquot of β-glucuronidase and sulfatase in the presence of ascorbate-EDTA solution. Following pre-treatment, the samples were extracted as described above for the free catechins.
(§5) The HPLC system consisted of an ESA Model 465 refrigerated autosampler, an ESA Model 580 two-pump solvent delivery system, an ESA 5500 coulochem electrode array system (CEAS), and a Supelcosil C18 reversed-phase column (150×4.6 mm; particle size, 5 μm; Supelco Inc., Bellefonte, Pa.). The autosampler and column temperatures were maintained at 6° C. and 35° C., respectively. This assay employed a gradient of two mobile phases. Buffer A consisted of 30 mM NaH2PO4 buffer, acetonitrile, and tetrahydrofuran in the volume ratio of 98.13:1.75:0.12 (pH 3.35). Buffer B consisted of 15 mM NaH2PO4 buffer, acetonitrile, and tetrahydrofuran in the volume ratio of 41.5:58.5:12.5 (pH 3.45). The flow rate was maintained at 1 ml/min. The column was eluted with 96% buffer A and 4% buffer B from 0 to 7 min.

[2] = Plasma free catechin pharmacokinetics after oral Polyphenon E, fasting/fed cross-over; format: in vivo, human; conditions: for EGCG AUC / EGCG Cmax: oral Polyphenon E 1200 mg dose level
Procedure: Study Design. […] Breakfast consisted of one or two 4-oz muffins.
Sample Collection and Processing. […] The total volume of each urine sample was measured.
Tea Polyphenol Concentration Measurements.
This assay employed a gradient of two mobile phases. […] The flow rate was maintained at 1 ml/min.
The distribution of pharmacokinetic parameter data was normalized by logarithmic transformation prior to statistical analyses. The primary analyses were to determine whether the pharmacokinetics of tea catechins are different under fasting/fed states. Pharmacokinetic parameters such as AUC, Cmax, Tmax, half-life, CL/F, Vd/F, and total amount excreted over 24 hr between the fasting and fed conditions were compared by standard cross-over statistical analyses. The pkcross routine in Stata 8.0 (StataCorp 2003) was used. […] A p<0.05 was considered statistically significant. In secondary analysis, EGCG pharmacokinetic parameters such as CL/F, Vd/F, dose normalized AUC, and dose normalized Cmax were compared among different dose levels using one-way analysis of variance followed by post-hoc t-tests corrected for multiple comparisons. For the post-hoc t-test, a p<0.0167 was considered statistically significant.

[3] = mice; cited from earlier work
[4] = rats; cited from earlier work
[5] = Total catechin recovered in urine over 24 hours after oral Polyphenon E; format: in vivo, human; conditions: following Polyphenon E administration
Procedure: Blood samples were collected prior to and at 0.5, 1, 2, 4, 6, 8, 10, and 24 hours after Polyphenon E administration. Urine samples were collected prior to and up to 24 hours (divided into two intervals: 0-8 and 8-24 hours post-dose) after dosing.
Sample Collection and Processing. Blood samples were collected into Vacutainer tubes containing sodium heparin. Within 30 minutes of collection, tubes were centrifuged for 10 minutes at 2000 rpm. After centrifugation, plasma was mixed with Vc-EDTA solution (0.4 M NaH2PO4 buffer containing 20% ascorbic acid and 0.1% EDTA, pH 3.6) in the volume ratio of 1:0.02 and stored at −80° C. until sample analysis. Urine specimen container was preadded with 1.38 g NaH2PO4, 1 g ascorbic acid, and 5 mg EDTA to prevent degradation of tea catechins. Urine specimen was kept cold by storing the specimen container in a cooler chest with freezer packs during each collection period. The total volume of each urine sample was measured. […]
The HPLC system consisted of an ESA Model 465 refrigerated autosampler, an ESA Model 580 two-pump solvent delivery system, an ESA 5500 coulochem electrode array system (CEAS), and a Supelcosil C18 reversed-phase column (150×4.6 mm; particle size, 5 μm; Supelco Inc., Bellefonte, Pa.). […] The eluent was monitored by the CEAS with potential settings at −10, 150, 300, and 500 mV. […]

[6] = in vivo
Procedure: as §1, §2, §3, §4, §5

[7] = oral Polyphenon E (400 mg EGCG), Fasting
[8] = oral Polyphenon E (400 mg EGCG), Fed
[9] = oral Polyphenon E (800 mg EGCG), Fasting
[10] = oral Polyphenon E (800 mg EGCG), Fed
[11] = oral Polyphenon E (1200 mg EGCG), Fasting
[12] = oral Polyphenon E (1200 mg EGCG), Fed
[13] = oral Polyphenon E 200 mg (so in the source), Fasting
[14] = oral Polyphenon E 200 mg (so in the source), Fed
[15] = oral Polyphenon E 400 mg, Fasting
[16] = oral Polyphenon E 800 mg, Fasting

With `O=C(O[C@@H]1Cc2c(O)cc(O)cc2O[C@@H]1c1cc(O)c(O)c(O)c1)c1cc(O)c(O)c(O)c1` [EGCG, epigallocatechin gallate] the “form mostly present in plasma” value [1] was “free form”, the “Maximum plasma total catechin concentrations” value [1, 7] was 754.9 ± 399.9^3 ng/ml and the “Maximum plasma total catechin concentrations” value [1, 8] was 174.4 ± 80.6 ng/mL. The “Maximum plasma total catechin concentrations” value [1, 9] was 1622.7 ± 1501.4^3 ng/ml, the “Maximum plasma total catechin concentrations” value [1, 10] was 360.1 ± 136.9 ng/mL and the “Maximum plasma total catechin concentrations” value [1, 11] was 3988.4 ± 2068.2^3 ng/ml. For the same compound, the “Maximum plasma total catechin concentrations” value [1, 12] was 871.9 ± 625.3 ng/mL, the “AUC of free EGCG” value [2, 13] was 685.53 ± 394.33^2 min · μg/ml and the “CL/F of free EGCG” value [2, 13] was 2.37 ± 1.32^2 L/min. The “Cmax of free EGCG” value [2, 13] was 3371.6 ± 1651.2^2 ng/ml, the “Tmax of free EGCG” value [2, 13] was 90.60 ± 28.37^3 min and the “t1/2 of free EGCG” value [2, 13] was 228.4 ± 75.3 min. For the same compound, the “AUC of free EGCG” value [2, 14] was 299.40 ± 285.86^2 min · μg/ml, the “CL/F of free EGCG” value [2, 14] was 7.39 ± 4.86 L/min and the “Cmax of free EGCG” value [2, 14] was 923.6 ± 755.3 ng/mL. The “Tmax of free EGCG” value [2, 14] was 175.10 ± 74.58 min, the “t1/2 of free EGCG” value [2, 14] was 254.9 ± 59.9^4 min and the “AUC of free EGCG” value [2, 15] was 126.96±47.02 min · μg/ml and 126.96 ± 47.02^2 min · μg/ml. The “CL/F of free EGCG” value [2, 15] was 3.64 ± 1.55^2 L/min, the “Cmax of free EGCG” value [2, 15] was 798.7±573.1 ng/ml and 798.7 ± 573.1^2 ng/ml and the “Tmax of free EGCG” value [2, 15] was 93.90 ± 58.99^3 min. The “t1/2 of free EGCG” value [2, 15] was 170.5 ± 104.6 min, the “AUC of free EGCG” value ([2]; oral Polyphenon E 400 mg, Fed) was 36.70±24.66 min · μg/ml and 36.70 ± 24.66^1 min · μg/ml and the “CL/F of free EGCG” value ([2]; oral Polyphenon E 400 mg, Fed) was 14.53 ± 7.84 L/min. The “Cmax of free EGCG” value ([2]; oral Polyphenon E 400 mg, Fed) was 141.8 ± 89.1 ng/mL, the “Tmax of free EGCG” value ([2]; oral Polyphenon E 400 mg, Fed) was 122.90 ± 83.70 min and the “t1/2 of free EGCG” value ([2]; oral Polyphenon E 400 mg, Fed) was 145.2 ± 129.1 min. For the same compound, the “AUC of free EGCG” value [2, 16] was 254.48±214.21 min · μg/ml and 254.48 ± 214.21^2 min · μg/ml, the “CL/F of free EGCG” value [2, 16] was 4.80 ± 2.69^2 L/min and the “Cmax of free EGCG” value [2, 16] was 1522.4±1357.8 ng/ml and 1522.4 ± 1357.8^2 ng/ml. For the same compound, the “Tmax of free EGCG” value [2, 16] was 83.30 ± 31.04^3 min, the “t1/2 of free EGCG” value [2, 16] was 156.5 ± 77.5 min and the “AUC of free EGCG” value ([2]; oral Polyphenon E 800 mg, Fed) was 90.89 ± 37.39 µg·min/mL. The “CL/F of free EGCG” value ([2]; oral Polyphenon E 800 mg, Fed) was 11.63 ± 9.25 L/min, the “Cmax of free EGCG” value ([2]; oral Polyphenon E 800 mg, Fed) was 294.0 ± 113.5 ng/mL and the “Tmax of free EGCG” value ([2]; oral Polyphenon E 800 mg, Fed) was 154.90 ± 78.31 min. The “t1/2 of free EGCG” value ([2]; oral Polyphenon E 800 mg, Fed) was 220.9 ± 209.3 min, the “EGCG AUC” value ([2]; with food) was 299.40 ± 285.86 µg·min/mL and the “EGCG Cmax” value ([2]; with food) was 0.9236 ± 0.7553 µg/mL. For the same compound, the “EGCG AUC” value ([2]; without food) was 685.53 ± 394.33 µg·min/mL, the “EGCG Cmax” value ([2]; without food) was 3.3716 ± 1.6512 µg/mL and the Maximum plasma free catechin concentrations [2, 7] was 799 ± 573 ng/mL. For the same compound, the “Maximum plasma free catechin concentrations” value [2, 8] was 141.8 ± 89.1 ng/mL, the “Maximum plasma free catechin concentrations” value [2, 9] was 1522.4 ± 1357.8^3 ng/ml and the “Maximum plasma free catechin concentrations” value [2, 10] was 294.0 ± 113.5 ng/mL. For the same compound, the “Maximum plasma free catechin concentrations” value [2, 11] was 3371.6 ± 1651.2^3 ng/ml, the “Maximum plasma free catechin concentrations” value [2, 12] was 923.6 ± 755.3 ng/mL and the oral bioavailability [3] was under 13%. For the same compound, the “oral dose available in the systemic blood” value [4] was “less than 2%” and the “urinary total catechin levels” value [5] was “very low or undetectable”.

For `Oc1cc(O)c2c(c1)O[C@H](c1ccc(O)c(O)c1)[C@H](O)C2` [EC, epicatechin], the “form mostly present in plasma” value [1] was “conjugated forms”, the “free catechin levels in plasma samples” value ([2]; after oral Polyphenon E) was “very low or undetectable” and the “Maximum plasma free catechin concentrations” value [2, 7] was 5.6 ± 7.8 ng/mL. The “Maximum plasma free catechin concentrations” value [2, 8] was 1.6 ± 3.9 ng/mL, the “Maximum plasma free catechin concentrations” value [2, 9] was 1.92 ± 3.4 ng/mL and the “Maximum plasma free catechin concentrations” value [2, 10] was 2.8 ± 5.0 ng/mL. The “Maximum plasma free catechin concentrations” value [2, 11] was 16.6 ± 30.0 ng/mL and the “Maximum plasma free catechin concentrations” value [2, 12] was 10.1 ± 15.3 ng/mL.

In the case of `O=C(O[C@@H]1Cc2c(O)cc(O)cc2O[C@@H]1c1ccc(O)c(O)c1)c1cc(O)c(O)c(O)c1` [ECG, epicatechin gallate], the “form mostly present in plasma” value [1] is reported as “free form”, the Maximum plasma free catechin concentrations [2, 7] is reported as 87.6 ± 62 ng/mL and the “Maximum plasma free catechin concentrations” value [2, 8] is reported as 15.7 ± 8.8 ng/mL. The Maximum plasma free catechin concentrations [2, 9] was 174 ± 141 ng/mL, the “Maximum plasma free catechin concentrations” value [2, 10] was 33.9 ± 11.0 ng/mL and the Maximum plasma free catechin concentrations [2, 11] was 383 ± 176 ng/mL. For the same compound, the “Maximum plasma free catechin concentrations” value [2, 12] was 112.9 ± 88.2 ng/mL and the “urinary total catechin levels” value [5] was “very low or undetectable”.

In the case of `Oc1cc(O)c2c(c1)O[C@H](c1cc(O)c(O)c(O)c1)[C@H](O)C2` [EGC, epigallocatechin], the “form mostly present in plasma” value [6] is reported as “conjugated forms”.
